# System: DSS (Dahl Salt Sensitive) rats
# Experiment: In vivo efficacy study on blood pressure in DSS rats (telemetry; systolic and diastolic pressure)
# Conditions: for Systolic blood pressure, mean: Compound I-1 50 mg/kg, alone or combined, QD PO
# Description: An in vivo study ascertains the effects on blood pressure in DSS (Dahl Salt Sensitive) rats. The DSS hypertensive rat model is a model of hypertension that is sensitive to dietary salt (NaCl), see for example Rapp (1982) Hypertension 4:753-763 and Hegde et al. BMC Pharmacology 2011, 11 (Suppl 1):P33. Under pentobarbital sodium anesthesia, a DSI (Data Sciences International, St. Paul, Minn.) telemetric probe is implanted. The transducer is inserted into abdominal aorta, and the transmitter is implanted into abdominal cavity. During postoperative recovery period, close observation is performed. Analgesics (Buprenorphine, 0.1-0.5 mg/kg, once per day for 1 day) and preventive antibiotics (Cephradine, 10˜15 mg/kg, ip., once per day for 3 days) are administered on a daily basis. Before the treatment period, all animals are fed with 8% high salt food for about 2 weeks. Test compound is formulated in 0.5% HPC and administered by oral gavage. Five groups of animals are treated as follows: 1. Vehicle, 0.5% HPC, QD, PO, N=5 2. Valsartan, 30 mg/kg, QD, PO, N=5 3. Compound I-1, 50 mg/kg, QD, PO, N=6 4. Compound I-1, 15 mg/kg+Valsartan, 30 mg/kg, QD, PO, N=5 5. Compound I-1, 50 mg/kg+Valsartan, 30 mg/kg, QD, PO, N=5 N is the number of animals. The mean arterial pressure, systolic pressure, diastolic pressure and heart rate after administration for each animal are measured. Interim results obtained before full study completion are shown in Tables 18 and 19 (full cohort of animals beyond day 7 were reduced due to some loss). Mean measurements of the systolic (Table 18) and diastolic (Table 19) blood pressures, for the baseline day prior to first treatment and for treatment days 1 and 7 only, in each treatment group, are shown. Measurements obtained every other hour only are shown.
structure (smiles),measurement,setting,value
"CCCCC(=O)N(Cc1ccc(-c2ccccc2-c2nnn[nH]2)cc1)[C@H](C(=O)O)C(C)C [Valsartan, valsartan]","Systolic blood pressure, mean","Baseline day prior to first treatment, Hour 1, groups Valsartan 30 mg/kg",157.31
same,"Systolic blood pressure, mean","Baseline day prior to first treatment, Hour 3, groups Valsartan 30 mg/kg",154.77
same,"Systolic blood pressure, mean","Baseline day prior to first treatment, Hour 5, groups Valsartan 30 mg/kg",151.17
same,"Systolic blood pressure, mean","Baseline day prior to first treatment, Hour 7, groups Valsartan 30 mg/kg",154.26
same,"Systolic blood pressure, mean","Baseline day prior to first treatment, Hour 9, groups Valsartan 30 mg/kg",160.88
same,"Systolic blood pressure, mean","Baseline day prior to first treatment, Hour 11, groups Valsartan 30 mg/kg",163.83
same,"Systolic blood pressure, mean","Baseline day prior to first treatment, Hour 13, groups Valsartan 30 mg/kg",164.35
same,"Systolic blood pressure, mean","Baseline day prior to first treatment, Hour 15, groups Valsartan 30 mg/kg",163.94
same,"Systolic blood pressure, mean","Baseline day prior to first treatment, Hour 17, groups Valsartan 30 mg/kg",164.12
same,"Systolic blood pressure, mean","Baseline day prior to first treatment, Hour 19, groups Valsartan 30 mg/kg",166.66
same,"Systolic blood pressure, mean","Baseline day prior to first treatment, Hour 21, groups Valsartan 30 mg/kg",166.05
same,"Systolic blood pressure, mean","Baseline day prior to first treatment, Hour 23, groups Valsartan 30 mg/kg",162.95
same,effect on blood pressure,"DSS rats, as compared to animals treated with vehicle alone, interim results",trend for lower blood pressure
same,"Systolic blood pressure, mean","Dosing day 1, Hour 1, Valsartan 30 mg/kg",159.22
same,"Systolic blood pressure, mean","Dosing day 1, Hour 3, Valsartan 30 mg/kg",149.24
same,"Systolic blood pressure, mean","Dosing day 1, Hour 5, Valsartan 30 mg/kg",152.75
same,"Systolic blood pressure, mean","Dosing day 1, Hour 7, Valsartan 30 mg/kg",160.54
same,"Systolic blood pressure, mean","Dosing day 1, Hour 9, Valsartan 30 mg/kg",165.09
same,"Systolic blood pressure, mean","Dosing day 1, Hour 11, Valsartan 30 mg/kg",166.16
same,"Systolic blood pressure, mean","Dosing day 1, Hour 13, Valsartan 30 mg/kg",162.84
same,"Systolic blood pressure, mean","Dosing day 1, Hour 15, Valsartan 30 mg/kg",162.88
same,"Systolic blood pressure, mean","Dosing day 1, Hour 17, Valsartan 30 mg/kg",169.80
same,"Systolic blood pressure, mean","Dosing day 1, Hour 19, Valsartan 30 mg/kg",162.27
same,"Systolic blood pressure, mean","Dosing day 1, Hour 21, Valsartan 30 mg/kg",163.01
same,"Systolic blood pressure, mean","Dosing day 1, Hour 23, Valsartan 30 mg/kg",155.05
same,"Systolic blood pressure, mean","Dosing day 7, Hour 1, Valsartan 30 mg/kg",165.60
same,"Systolic blood pressure, mean","Dosing day 7, Hour 3, Valsartan 30 mg/kg",143.04
same,"Systolic blood pressure, mean","Dosing day 7, Hour 5, Valsartan 30 mg/kg",142.52
same,"Systolic blood pressure, mean","Dosing day 7, Hour 7, Valsartan 30 mg/kg",153.17
same,"Systolic blood pressure, mean","Dosing day 7, Hour 9, Valsartan 30 mg/kg",170.26
same,"Systolic blood pressure, mean","Dosing day 7, Hour 11, Valsartan 30 mg/kg",173.95
same,"Systolic blood pressure, mean","Dosing day 7, Hour 13, Valsartan 30 mg/kg",175.24
same,"Systolic blood pressure, mean","Dosing day 7, Hour 15, Valsartan 30 mg/kg",177.02
same,"Systolic blood pressure, mean","Dosing day 7, Hour 17, Valsartan 30 mg/kg",176.02
same,"Systolic blood pressure, mean","Dosing day 7, Hour 19, Valsartan 30 mg/kg",176.83
same,"Systolic blood pressure, mean","Dosing day 7, Hour 21, Valsartan 30 mg/kg",164.22
same,"Systolic blood pressure, mean","Dosing day 7, Hour 23, Valsartan 30 mg/kg",163.41
same,"Diastolic blood pressure, Mean","Valsartan 30 mg/kg, Baseline day, Hour 1",106.03
same,"Diastolic blood pressure, Mean","Valsartan 30 mg/kg, Baseline day, Hour 3",102.82
same,"Diastolic blood pressure, Mean","Valsartan 30 mg/kg, Baseline day, Hour 5",100.19
same,"Diastolic blood pressure, Mean","Valsartan 30 mg/kg, Baseline day, Hour 7",103.02
same,"Diastolic blood pressure, Mean","Valsartan 30 mg/kg, Baseline day, Hour 9",110.48
same,"Diastolic blood pressure, Mean","Valsartan 30 mg/kg, Baseline day, Hour 11",114.29
same,"Diastolic blood pressure, Mean","Valsartan 30 mg/kg, Baseline day, Hour 13",115.22
same,"Diastolic blood pressure, Mean","Valsartan 30 mg/kg, Baseline day, Hour 15",113.98
same,"Diastolic blood pressure, Mean","Valsartan 30 mg/kg, Baseline day, Hour 17",114.14
same,"Diastolic blood pressure, Mean","Valsartan 30 mg/kg, Baseline day, Hour 19",116.35
same,"Diastolic blood pressure, Mean","Valsartan 30 mg/kg, Baseline day, Hour 21",116.78
same,"Diastolic blood pressure, Mean","Valsartan 30 mg/kg, Baseline day, Hour 23",111.79
same,"Diastolic blood pressure, Mean","Valsartan 30 mg/kg, Dosing day 1, Hour 1",107.73
same,"Diastolic blood pressure, Mean","Valsartan 30 mg/kg, Dosing day 1, Hour 3",101.25
same,"Diastolic blood pressure, Mean","Valsartan 30 mg/kg, Dosing day 1, Hour 5",98.63
same,"Diastolic blood pressure, Mean","Valsartan 30 mg/kg, Dosing day 1, Hour 7",100.29
same,"Diastolic blood pressure, Mean","Valsartan 30 mg/kg, Dosing day 1, Hour 9",109.35
same,"Diastolic blood pressure, Mean","Valsartan 30 mg/kg, Dosing day 1, Hour 11",115.04
same,"Diastolic blood pressure, Mean","Valsartan 30 mg/kg, Dosing day 1, Hour 13",116.06
same,"Diastolic blood pressure, Mean","Valsartan 30 mg/kg, Dosing day 1, Hour 15",113.61
same,"Diastolic blood pressure, Mean","Valsartan 30 mg/kg, Dosing day 1, Hour 17",112.82
same,"Diastolic blood pressure, Mean","Valsartan 30 mg/kg, Dosing day 1, Hour 19",119.69
same,"Diastolic blood pressure, Mean","Valsartan 30 mg/kg, Dosing day 1, Hour 21",112.65
same,"Diastolic blood pressure, Mean","Valsartan 30 mg/kg, Dosing day 1, Hour 23",112.26
same,"Diastolic blood pressure, Mean","Valsartan 30 mg/kg, Dosing day 7, Hour 1",113.86
same,"Diastolic blood pressure, Mean","Valsartan 30 mg/kg, Dosing day 7, Hour 3",94.17
same,"Diastolic blood pressure, Mean","Valsartan 30 mg/kg, Dosing day 7, Hour 5",93.33
same,"Diastolic blood pressure, Mean","Valsartan 30 mg/kg, Dosing day 7, Hour 7",102.69
same,"Diastolic blood pressure, Mean","Valsartan 30 mg/kg, Dosing day 7, Hour 9",117.65
same,"Diastolic blood pressure, Mean","Valsartan 30 mg/kg, Dosing day 7, Hour 11",123.73
same,"Diastolic blood pressure, Mean","Valsartan 30 mg/kg, Dosing day 7, Hour 13",125.63
same,"Diastolic blood pressure, Mean","Valsartan 30 mg/kg, Dosing day 7, Hour 15",126.20
same,"Diastolic blood pressure, Mean","Valsartan 30 mg/kg, Dosing day 7, Hour 17",124.23
same,"Diastolic blood pressure, Mean","Valsartan 30 mg/kg, Dosing day 7, Hour 19",127.67
same,"Diastolic blood pressure, Mean","Valsartan 30 mg/kg, Dosing day 7, Hour 21",112.77
same,"Diastolic blood pressure, Mean","Valsartan 30 mg/kg, Dosing day 7, Hour 23",112.12

# From patent publication US11426375B2, “Substituted bisphenyl butanoic ester derivatives as NEP inhibitors” (NOVARTIS AG, priority 2019, dated 2022)
